# Test results as given in ChEMBL document CHEMBL1146955, “A novel series of arylsulfonylthiophene-2-carboxamidine inhibitors of the complement component C1s” (Bioorg Med Chem Lett, 2006).
# Molecular target: Tissue-type plasminogen activator (Homo sapiens, UniProt P00750)
# Experiment: Inhibition of tPA
# Tissue-type plasminogen activator, sequence (P00750 whole entry): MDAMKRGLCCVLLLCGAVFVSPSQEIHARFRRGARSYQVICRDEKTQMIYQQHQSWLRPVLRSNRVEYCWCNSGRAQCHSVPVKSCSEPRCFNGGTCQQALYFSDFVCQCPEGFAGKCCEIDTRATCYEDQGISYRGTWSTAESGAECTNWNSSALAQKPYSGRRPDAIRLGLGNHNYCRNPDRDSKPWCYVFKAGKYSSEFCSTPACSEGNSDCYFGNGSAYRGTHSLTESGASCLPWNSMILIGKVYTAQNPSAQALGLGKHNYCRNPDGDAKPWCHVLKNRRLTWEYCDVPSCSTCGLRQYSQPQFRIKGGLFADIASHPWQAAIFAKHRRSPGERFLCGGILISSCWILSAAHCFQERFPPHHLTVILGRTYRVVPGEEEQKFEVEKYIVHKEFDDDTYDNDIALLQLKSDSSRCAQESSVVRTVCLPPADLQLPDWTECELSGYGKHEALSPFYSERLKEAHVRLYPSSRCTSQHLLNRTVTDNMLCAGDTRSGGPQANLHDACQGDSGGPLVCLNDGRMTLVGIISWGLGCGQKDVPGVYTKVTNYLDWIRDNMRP
row,Ki [nM],SMILES
1,> 10000,CSc1sc(C(=N)N)cc1S(=O)(=O)c1cc(Br)c2c(c1)ncn2Cc1cc(F)ccc1F

# Molecular target: Coagulation factor X (Homo sapiens, UniProt P00742)
# Experiment: Inhibition of F10a
# Coagulation factor X, sequence (P00742 41-179 limits assumed): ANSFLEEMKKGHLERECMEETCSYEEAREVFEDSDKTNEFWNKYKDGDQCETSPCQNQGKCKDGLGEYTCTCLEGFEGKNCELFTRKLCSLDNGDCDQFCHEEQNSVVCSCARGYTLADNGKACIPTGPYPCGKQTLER
# Coagulation factor X, sequence (P00742 235-488 limits assumed): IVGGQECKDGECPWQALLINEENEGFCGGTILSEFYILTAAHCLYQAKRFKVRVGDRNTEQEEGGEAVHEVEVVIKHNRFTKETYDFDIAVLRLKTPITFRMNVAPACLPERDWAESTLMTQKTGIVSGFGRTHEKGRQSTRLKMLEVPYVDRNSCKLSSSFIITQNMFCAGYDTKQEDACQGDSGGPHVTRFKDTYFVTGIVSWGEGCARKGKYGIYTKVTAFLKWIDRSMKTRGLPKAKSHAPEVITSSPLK
row,Ki [nM],SMILES
1,11400,CSc1sc(C(=N)N)cc1S(=O)(=O)c1cc(Br)c2c(c1)ncn2Cc1cc(F)ccc1F

# Molecular target: Prothrombin (Homo sapiens, UniProt P00734)
# Experiment: Inhibition of thrombin
row,Ki [nM],SMILES
1,> 15000,CSc1sc(C(=N)N)cc1S(=O)(=O)c1cc(Br)c2c(c1)ncn2Cc1cc(F)ccc1F

# Molecular target: T1, Complement C1s subcomponent (Homo sapiens, UniProt P09871)
# T1 sequence (P09871 whole entry): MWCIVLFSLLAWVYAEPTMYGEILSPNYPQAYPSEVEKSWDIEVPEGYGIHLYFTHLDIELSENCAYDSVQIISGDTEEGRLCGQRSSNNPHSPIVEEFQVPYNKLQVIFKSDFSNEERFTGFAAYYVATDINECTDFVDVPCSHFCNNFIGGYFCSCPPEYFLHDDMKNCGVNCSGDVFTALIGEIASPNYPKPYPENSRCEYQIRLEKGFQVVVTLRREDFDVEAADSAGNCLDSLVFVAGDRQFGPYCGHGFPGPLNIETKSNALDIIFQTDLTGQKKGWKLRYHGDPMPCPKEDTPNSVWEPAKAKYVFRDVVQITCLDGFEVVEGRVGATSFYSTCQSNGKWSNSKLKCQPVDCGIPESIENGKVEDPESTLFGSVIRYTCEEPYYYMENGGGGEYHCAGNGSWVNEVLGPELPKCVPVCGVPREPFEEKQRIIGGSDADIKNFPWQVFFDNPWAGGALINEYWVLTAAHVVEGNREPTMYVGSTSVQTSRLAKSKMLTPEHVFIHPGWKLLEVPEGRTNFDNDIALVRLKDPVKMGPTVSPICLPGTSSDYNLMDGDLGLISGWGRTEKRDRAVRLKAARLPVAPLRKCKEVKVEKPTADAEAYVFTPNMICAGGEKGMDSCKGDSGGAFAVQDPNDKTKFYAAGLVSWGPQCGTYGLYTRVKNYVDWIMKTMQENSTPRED
# Experiment: Inhibition of C1S
row,SMILES,Ki [nM]
1,CSc1sc(C(=N)N)cc1S(=O)(=O)c1cc(Br)c2c(c1)ncn2-c1ccccc1,310
2,CSc1sc(C(=N)N)cc1S(=O)(=O)c1ccc2c(c1)ncn2Cc1ccccc1,400
3,CSc1sc(C(=N)N)cc1S(=O)(=O)c1cc(Br)c2c(c1)ncn2[C@H](C)c1ccccc1,380
4,CSc1sc(C(=N)N)cc1S(=O)(=O)c1cc(Br)c2ncn(C)c2c1,330
5,CSc1sc(C(=N)N)cc1S(=O)(=O)c1cc(Br)c2ncn(Cc3c(F)cccc3F)c2c1,170
6,CSc1sc(C(=N)N)cc1S(=O)(=O)c1cc(Br)c2c(c1)ncn2CC=C(C)C,50
7,CSc1sc(C(=N)N)cc1S(=O)(=O)c1ccccn1,2290
8,CSc1sc(C(=N)N)cc1S(=O)(=O)c1cc(Br)c2c(c1)ncn2Cc1c(Cl)cccc1Cl,20
9,C=CCn1cnc2c(Br)cc(S(=O)(=O)c3cc(C(=N)N)sc3SC)cc21,210
10,CSc1sc(C(=N)N)cc1S(=O)(=O)c1nccn1C,1880
11,CSc1sc(C(=N)N)cc1S(=O)(=O)c1cc(Br)c2ncn(CC=C(C)C)c2c1,200
12,CSc1sc(C(=N)N)cc1S(=O)(=O)c1ccc2ccccc2c1,410
13,CSc1sc(C(=N)N)cc1S(=O)(=O)c1cc(Br)c2c(c1)ncn2C,400
14,CSc1sc(C(=N)N)cc1S(=O)(=O)c1cc(Br)c2c(c1)ncn2Cc1c(F)cccc1F,40
15,CSc1sc(C(=N)N)cc1S(=O)(=O)c1cc(Cl)c2c(c1)ncn2Cc1c(F)cccc1F,100
16,CSc1sc(C(=N)N)cc1S(=O)(=O)c1ccoc1C,1790
17,CSc1sc(C(=N)N)cc1S(=O)(=O)c1cc(Br)c2ncn(Cc3c(Cl)cccc3Cl)c2c1,160
18,CSc1sc(C(=N)N)cc1S(=O)(=O)c1cc(Br)c2c(c1)ncn2Cc1ccccc1,30

# Further compounds by falling Ki, results first:
row,Ki [nM],SMILES
1,11000,CSc1sc(C(=N)N)cc1S(=O)(=O)C(C)C
2,2240,CSc1sc(C(=N)N)cc1S(=O)(=O)c1cccs1
3,2000,CSc1sc(C(=N)N)cc1S(=O)(=O)Cc1ccccc1
4,750,CSc1sc(C(=N)N)cc1S(=O)(=O)c1ccccc1
5,580,CSc1sc(C(=N)N)cc1S(=O)(=O)c1ccc2c(c1)ncn2Cc1ccccn1
6,420,CSc1sc(C(=N)N)cc1S(=O)(=O)c1ccc2ncn(Cc3ccccc3)c2c1
7,400,CSc1sc(C(=N)N)cc1S(=O)(=O)c1cc(Br)c2nc[nH]c2c1
8,400,CSc1sc(C(=N)N)cc1S(=O)(=O)c1cc(Br)c2ncn(Cc3ccccc3)c2c1
9,330,CSc1sc(C(=N)N)cc1S(=O)(=O)c1cc(Br)c2c(c1)ncn2[C@@H](C)c1ccccc1
10,240,CSc1sc(C(=N)N)cc1S(=O)(=O)c1cc(Br)c2ncn(Cc3cc(F)ccc3F)c2c1
11,180,CSc1sc(C(=N)N)cc1S(=O)(=O)c1cc(Br)c2ncn(-c3ccccc3)c2c1
12,170,CSc1sc(C(=N)N)cc1S(=O)(=O)c1cc(Br)c2ncn(Cc3cc([N+](=O)[O-])ccc3F)c2c1
13,100,CSc1sc(C(=N)N)cc1S(=O)(=O)c1cc(Cl)c2ncn(Cc3c(F)cccc3F)c2c1
14,70,C=CCn1cnc2cc(S(=O)(=O)c3cc(C(=N)N)sc3SC)cc(Br)c21
15,30,CSc1sc(C(=N)N)cc1S(=O)(=O)c1cc(Br)c2c(c1)ncn2Cc1cc([N+](=O)[O-])ccc1F
16,10,CSc1sc(C(=N)N)cc1S(=O)(=O)c1cc(Br)c2c(c1)ncn2Cc1cc(F)ccc1F

# Molecular target: Trypsin (Homo sapiens, UniProt P07477+P07478+P35030)
# Experiment: Inhibition of trypsin
# Type: protein assay
row,Ki [nM],SMILES
1,1400,CSc1sc(C(=N)N)cc1S(=O)(=O)c1cc(Br)c2c(c1)ncn2Cc1cc(F)ccc1F

# Molecular target: Urokinase-type plasminogen activator (Homo sapiens, UniProt P00749)
# Experiment: Inhibition of uPA
row,Ki [nM],SMILES
1,> 10000,CSc1sc(C(=N)N)cc1S(=O)(=O)c1cc(Br)c2c(c1)ncn2Cc1cc(F)ccc1F

# Molecular target: Plasminogen (Homo sapiens, UniProt P00747)
# Sequence (P00747 97-580 limits assumed): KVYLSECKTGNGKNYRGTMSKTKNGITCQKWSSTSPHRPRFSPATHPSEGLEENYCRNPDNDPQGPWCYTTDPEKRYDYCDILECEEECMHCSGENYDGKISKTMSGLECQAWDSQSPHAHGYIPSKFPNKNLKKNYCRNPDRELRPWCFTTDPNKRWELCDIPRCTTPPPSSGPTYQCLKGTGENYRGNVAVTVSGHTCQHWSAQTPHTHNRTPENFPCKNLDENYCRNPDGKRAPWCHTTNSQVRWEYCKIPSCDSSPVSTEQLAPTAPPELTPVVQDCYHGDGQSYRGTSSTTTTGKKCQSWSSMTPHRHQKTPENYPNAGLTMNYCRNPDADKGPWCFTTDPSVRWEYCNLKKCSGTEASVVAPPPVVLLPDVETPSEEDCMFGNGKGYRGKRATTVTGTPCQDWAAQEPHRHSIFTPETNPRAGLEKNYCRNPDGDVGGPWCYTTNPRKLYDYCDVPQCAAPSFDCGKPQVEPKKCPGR
# Sequence (P00747 581-810 limits assumed): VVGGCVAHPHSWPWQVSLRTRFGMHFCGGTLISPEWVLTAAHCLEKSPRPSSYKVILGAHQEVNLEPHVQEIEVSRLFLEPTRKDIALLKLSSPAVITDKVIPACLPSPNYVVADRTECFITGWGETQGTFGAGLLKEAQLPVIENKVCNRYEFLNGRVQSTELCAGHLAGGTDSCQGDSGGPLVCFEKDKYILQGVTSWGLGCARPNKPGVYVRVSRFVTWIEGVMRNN
# Experiment: Inhibition of plasmin
row,Ki [nM],SMILES
1,> 13000,CSc1sc(C(=N)N)cc1S(=O)(=O)c1cc(Br)c2c(c1)ncn2Cc1cc(F)ccc1F
